Experimental data from the supplement of paper PMC10307832.

Columns and labels:
Assay in all cases: relative viability (nuclei count vs DMSO), 5 days (fraction); higher = more cells survive
[1] = compound: O=C(/C=C/c1cccnc1)NCCCCC1CCN(C(=O)c2ccccc2)CC1 [Daporinad] + CCNC(=O)c1noc(-c2cc(C(C)C)c(O)cc2O)c1-c1ccc(CN2CCOCC2)cc1 [Luminespib] (partner 0.01 µM)
Procedure, shortened: (§1)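 For relative viability, nuclei counts in treated wells were divided by those in vehicle wells. Lung cancer cell lines had been pin-tool dosed in 1536-well plates the day after seeding and cultured for 5 days, then fixed and stained in one step (final 0.05% Triton X-100, 1% formaldehyde, 1 ug/ml Hoechst) and imaged at 4×. Doses were one drug alone or a fixed anchor-drug dose plus five library-drug doses (not always all listed) in √10 steps, and values are duplicate-plate medians.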

[2] = compound: COc1cc(Nc2ncc(F)c(Nc3ccc4c(n3)NC(=O)C(C)(C)O4)n2)cc(OC)c1OC [R406] + O=C(CCCCCCC(=O)Nc1ccccc1)NO [Vorinostat] (partner 1 µM)
Procedure, shortened: as §1

[3] = compound: O=C(/C=C/c1cccnc1)NCCCCC1CCN(C(=O)c2ccccc2)CC1 [Daporinad] + O=C(c1cc(Cc2n[nH]c(=O)c3ccccc23)ccc1F)N1CCN(C(=O)C2CC2)CC1 [Olaparib] (partner 8 µM)
Procedure, shortened: as §1

[4] = compound: O=C(/C=C/c1cccnc1)NCCCCC1CCN(C(=O)c2ccccc2)CC1 [Daporinad] + Cc1cc(Nc2cc(N3CCN(C)CC3)nc(Sc3ccc(NC(=O)C4CC4)cc3)n2)n[nH]1 [Tozasertib] (partner 0.1 µM)
Procedure, shortened: as §1

Cell Line: SW 1573
- relative viability ([1]; first compound 0.0005 µM): 0.207
- relative viability ([1]; first compound 0.001581 µM): 0.737
- relative viability ([1]; first compound 0.005 µM): 0.207
- relative viability ([1]; first compound 0.01581 µM): 0.296
- relative viability ([2]; first compound 0.08 µM): 0.57
- relative viability ([2]; first compound 0.253 µM): 1.18
- relative viability ([2]; first compound 0.8 µM): 0.947
- relative viability ([2]; first compound 2.53 µM): 0.658
- relative viability ([2]; first compound 8 µM): 0.305
- relative viability ([3]; first compound 0.0005 µM): 0.367
- relative viability ([3]; first compound 0.001581 µM): 0.312
- relative viability ([3]; first compound 0.005 µM): 0.323
- relative viability ([3]; first compound 0.01581 µM): 0.274
- relative viability ([4]; first compound 0.0005 µM): 0.185
- relative viability ([4]; first compound 0.001581 µM): 0.183
- relative viability ([4]; first compound 0.005 µM): 0.166
- relative viability ([4]; first compound 0.01581 µM): 0.178

Cell Line: NCI-H1975
- relative viability ([1]; first compound 0.0005 µM): 0.206
- relative viability ([1]; first compound 0.001581 µM): 0.262
- relative viability ([1]; first compound 0.005 µM): 0.183
- relative viability ([1]; first compound 0.01581 µM): 0.3
- relative viability ([2]; first compound 0.08 µM): 0.722
- relative viability ([2]; first compound 0.253 µM): 0.775
- relative viability ([2]; first compound 0.8 µM): 0.73
- relative viability ([2]; first compound 2.53 µM): 0.414
- relative viability ([2]; first compound 8 µM): 0.213
- relative viability ([3]; first compound 0.0005 µM): 0.818
- relative viability ([3]; first compound 0.001581 µM): 0.764
- relative viability ([3]; first compound 0.005 µM): 0.728
- relative viability ([3]; first compound 0.01581 µM): 0.611
- relative viability ([4]; first compound 0.0005 µM): 0.789
- relative viability ([4]; first compound 0.001581 µM): 0.742
- relative viability ([4]; first compound 0.005 µM): 0.661
- relative viability ([4]; first compound 0.01581 µM): 0.692

Cell Line: NCI-H1651
- relative viability ([1]; first compound 0.0005 µM): 0.829
- relative viability ([1]; first compound 0.001581 µM): 0.676
- relative viability ([1]; first compound 0.005 µM): 0.805
- relative viability ([1]; first compound 0.01581 µM): 0.67
- relative viability ([2]; first compound 0.08 µM): 0.557
- relative viability ([2]; first compound 0.253 µM): 0.612
- relative viability ([2]; first compound 0.8 µM): 0.615
- relative viability ([2]; first compound 2.53 µM): 0.547
- relative viability ([2]; first compound 8 µM): 0.545
- relative viability ([3]; first compound 0.0005 µM): 0.159
- relative viability ([3]; first compound 0.001581 µM): 0.15
- relative viability ([3]; first compound 0.005 µM): 0.131
- relative viability ([3]; first compound 0.01581 µM): 0.138
- relative viability ([4]; first compound 0.0005 µM): 0.615
- relative viability ([4]; first compound 0.001581 µM): 0.814
- relative viability ([4]; first compound 0.005 µM): 0.601
- relative viability ([4]; first compound 0.01581 µM): 0.663

Cell Line: NCI-H460
- relative viability ([1]; first compound 0.0005 µM): 0.0254
- relative viability ([1]; first compound 0.001581 µM): 0.0436
- relative viability ([1]; first compound 0.005 µM): 0.0289
- relative viability ([1]; first compound 0.01581 µM): 0.0343
- relative viability ([2]; first compound 0.08 µM): 0.673
- relative viability ([2]; first compound 0.253 µM): 1.04
- relative viability ([2]; first compound 0.8 µM): 0.917
- relative viability ([2]; first compound 2.53 µM): 0.645
- relative viability ([2]; first compound 8 µM): 0.742
- relative viability ([3]; first compound 0.0005 µM): 0.399
- relative viability ([3]; first compound 0.001581 µM): 0.375
- relative viability ([3]; first compound 0.005 µM): 0.184
- relative viability ([3]; first compound 0.01581 µM): 0.143
- relative viability ([4]; first compound 0.0005 µM): 0.43
- relative viability ([4]; first compound 0.001581 µM): 0.386
- relative viability ([4]; first compound 0.005 µM): 0.6
- relative viability ([4]; first compound 0.01581 µM): 0.56

Cell Line: LCLC-103H
- relative viability ([1]; first compound 0.0005 µM): 0.988
- relative viability ([1]; first compound 0.001581 µM): 0.937
- relative viability ([1]; first compound 0.005 µM): 1.03
- relative viability ([1]; first compound 0.01581 µM): 1.06
- relative viability ([2]; first compound 0.08 µM): 0.729
- relative viability ([2]; first compound 0.253 µM): 0.764
- relative viability ([2]; first compound 0.8 µM): 0.834
- relative viability ([2]; first compound 2.53 µM): 0.779
- relative viability ([2]; first compound 8 µM): 0.566
- relative viability ([3]; first compound 0.0005 µM): 0.877
- relative viability ([3]; first compound 0.001581 µM): 0.741
- relative viability ([3]; first compound 0.005 µM): 0.697
- relative viability ([3]; first compound 0.01581 µM): 0.688
- relative viability ([4]; first compound 0.0005 µM): 0.548
- relative viability ([4]; first compound 0.001581 µM): 0.5
- relative viability ([4]; first compound 0.005 µM): 0.514
- relative viability ([4]; first compound 0.01581 µM): 0.525

Cell Line: LCLC-97TM1
- relative viability ([1]; first compound 0.0005 µM): 0.714
- relative viability ([1]; first compound 0.001581 µM): 0.86
- relative viability ([1]; first compound 0.005 µM): 0.768
- relative viability ([1]; first compound 0.01581 µM): 0.774
- relative viability ([2]; first compound 0.08 µM): 0.732
- relative viability ([2]; first compound 0.253 µM): 0.908
- relative viability ([2]; first compound 0.8 µM): 1.38
- relative viability ([2]; first compound 2.53 µM): 0.569
- relative viability ([2]; first compound 8 µM): 0.468
- relative viability ([3]; first compound 0.0005 µM): 0.435
- relative viability ([3]; first compound 0.001581 µM): 0.322
- relative viability ([3]; first compound 0.005 µM): 0.201
- relative viability ([3]; first compound 0.01581 µM): 0.122
- relative viability ([4]; first compound 0.0005 µM): 0.194
- relative viability ([4]; first compound 0.001581 µM): 0.432
- relative viability ([4]; first compound 0.005 µM): 0.181
- relative viability ([4]; first compound 0.01581 µM): 0.253

Cell Line: NCI-H838
- relative viability ([1]; first compound 0.0005 µM): 0.288
- relative viability ([1]; first compound 0.001581 µM): 0.332
- relative viability ([1]; first compound 0.005 µM): 0.343
- relative viability ([1]; first compound 0.01581 µM): 0.29
- relative viability ([2]; first compound 0.08 µM): 0.694
- relative viability ([2]; first compound 0.253 µM): 0.795
- relative viability ([2]; first compound 0.8 µM): 0.769
- relative viability ([2]; first compound 2.53 µM): 0.458
- relative viability ([2]; first compound 8 µM): 0.194
- relative viability ([3]; first compound 0.0005 µM): 0.699
- relative viability ([3]; first compound 0.001581 µM): 0.631
- relative viability ([3]; first compound 0.005 µM): 0.482
- relative viability ([3]; first compound 0.01581 µM): 0.341
- relative viability ([4]; first compound 0.0005 µM): 0.25
- relative viability ([4]; first compound 0.001581 µM): 0.322
- relative viability ([4]; first compound 0.005 µM): 0.229
- relative viability ([4]; first compound 0.01581 µM): 0.177

Cell Line: NCI-H1355
- relative viability ([1]; first compound 0.0005 µM): 0.79
- relative viability ([1]; first compound 0.001581 µM): 0.793
- relative viability ([1]; first compound 0.005 µM): 0.752
- relative viability ([1]; first compound 0.01581 µM): 0.81
- relative viability ([2]; first compound 0.08 µM): 0.72
- relative viability ([2]; first compound 0.253 µM): 0.71
- relative viability ([2]; first compound 0.8 µM): 0.733
- relative viability ([2]; first compound 2.53 µM): 0.385
- relative viability ([2]; first compound 8 µM): 0.439
- relative viability ([3]; first compound 0.0005 µM): 0.693
- relative viability ([3]; first compound 0.001581 µM): 0.737
- relative viability ([3]; first compound 0.005 µM): 0.6
- relative viability ([3]; first compound 0.01581 µM): 0.479
- relative viability ([4]; first compound 0.0005 µM): 0.519
- relative viability ([4]; first compound 0.001581 µM): 0.558
- relative viability ([4]; first compound 0.005 µM): 0.58
- relative viability ([4]; first compound 0.01581 µM): 0.631

Cell Line: HOP-62
- relative viability ([1]; first compound 0.0005 µM): 0.898
- relative viability ([1]; first compound 0.001581 µM): 0.963
- relative viability ([1]; first compound 0.005 µM): 1.03
- relative viability ([1]; first compound 0.01581 µM): 0.688
- relative viability ([2]; first compound 0.08 µM): 0.66
- relative viability ([2]; first compound 0.253 µM): 0.803
- relative viability ([2]; first compound 0.8 µM): 0.836
- relative viability ([2]; first compound 2.53 µM): 0.464
- relative viability ([2]; first compound 8 µM): 0.463
- relative viability ([3]; first compound 0.0005 µM): 0.258
- relative viability ([3]; first compound 0.001581 µM): 0.287
- relative viability ([3]; first compound 0.005 µM): 0.188
- relative viability ([3]; first compound 0.01581 µM): 0.15
- relative viability ([4]; first compound 0.0005 µM): 0.379
- relative viability ([4]; first compound 0.001581 µM): 0.432
- relative viability ([4]; first compound 0.005 µM): 0.332
- relative viability ([4]; first compound 0.01581 µM): 0.353

Cell Line: NCI-H2085
- relative viability ([1]; first compound 0.0005 µM): 0.386
- relative viability ([1]; first compound 0.001581 µM): 0.434
- relative viability ([1]; first compound 0.005 µM): 0.549
- relative viability ([1]; first compound 0.01581 µM): 0.503
- relative viability ([2]; first compound 0.08 µM): 0.749
- relative viability ([2]; first compound 0.253 µM): 0.8
- relative viability ([2]; first compound 0.8 µM): 0.847
- relative viability ([2]; first compound 2.53 µM): 0.691
- relative viability ([2]; first compound 8 µM): 0.561
- relative viability ([3]; first compound 0.0005 µM): 0.673
- relative viability ([3]; first compound 0.005 µM): 0.629
- relative viability ([3]; first compound 0.01581 µM): 0.629
- relative viability ([4]; first compound 0.0005 µM): 0.805
- relative viability ([4]; first compound 0.001581 µM): 0.846
- relative viability ([4]; first compound 0.005 µM): 0.977
- relative viability ([4]; first compound 0.01581 µM): 0.831

Cell Line: SW 900
- relative viability ([1]; first compound 0.0005 µM): 0.19
- relative viability ([1]; first compound 0.001581 µM): 0.159
- relative viability ([1]; first compound 0.005 µM): 0.181
- relative viability ([1]; first compound 0.01581 µM): 0.17
- relative viability ([2]; first compound 0.08 µM): 0.475
- relative viability ([2]; first compound 0.253 µM): 0.844
- relative viability ([2]; first compound 0.8 µM): 0.577
- relative viability ([2]; first compound 2.53 µM): 0.134
- relative viability ([2]; first compound 8 µM): 0.15
- relative viability ([3]; first compound 0.0005 µM): 0.624
- relative viability ([3]; first compound 0.005 µM): 0.572
- relative viability ([3]; first compound 0.01581 µM): 0.375
- relative viability ([4]; first compound 0.0005 µM): 0.638
- relative viability ([4]; first compound 0.001581 µM): 0.473
- relative viability ([4]; first compound 0.005 µM): 0.735
- relative viability ([4]; first compound 0.01581 µM): 0.346
